Reference: US9636323B2, “Method of treating cancer that overexpresses TopBP1” (Baylor College of Medicine, priority 2014, dated 2017)

Key:
[1] = system: TopBP1-BRCT7/8 binding to p53(DBD); assay: GST-p53(DBD) pulldown assay; conditions: FIG. 1g
Description: Purified TopBP1-BRCT7/8 (2 μg) was incubated with compounds in NETN-A buffer as above at 4° C. for 3 h with constant rotation. Then purified GST-p53-DBD or GST (2 μg) were added and rotated for another 3 h at 4° C. GST-p53-DBD was then pulled down with glutathione-Sepharose. The beads were washed six times with NETN-B buffer and then subjected to SDS-PAGE analysis.

[2] = system: TopBP1-BRCT7/8 binding to pS1159 peptide; assay: pS1159 peptide binding assay (streptavidin Sepharose pulldown); conditions: FIG. 1f
Description: The GST fusion proteins in Escherichia coli strain BL21 were induced by 0.1 mM IPTG (isopropyl-β-D-thiogalactopyranoside) and purified according to the standard protocol. The GST portion on GST-TopBP1-BRCT7/8 was excised by Pre-Scission protease (Pharmacia). Two purified (>98%) biotin conjugated peptides were synthesized from Sigma Genosys. The peptide sequence is derived from the surrounding sequence of TopBP1 S1159: pP, Btn-[…]pSer^1159NLQWPS and nP, Btn-[…]. Purified TopBP1-BRCT7/8 (2 μg) was incubated with compounds in NETN-A buffer (50 mM NaCl, 1 mM EDTA, 20 mM Tris, 0.5% NP-40) at 4° C. for 3 h with constant rotation. Then 2 μg of purified pP or nP peptides were added and rotated for another 3 h at 4° C. The biotin-conjugated peptides were then pulled down with streptavidin-Sepharose (Amersham). The beads were washed six times with NETN-B buffer (100 mM NaCl, 1 mM EDTA, 0.2 mM phenylmethylsulfonyl fluoride) and then subjected to sodium dodecyl sulfate-polyacrylamide gel electrophoresis (SDS-PAGE) and analyzed by Western blotting with anti-TopBP1 antibody (1:1000, BL893, Bethyl Laboratories).

- concentrations at which TopBP1/p53(DBD) interaction was blocked [1]: submicromolar
- effective amount of Calcein that needs to be present ([1]; GST-p53(DBD) pulldown): 60 to 300 nM
- concentrations at which TopBP1/pS1159 interaction was blocked [2]: submicromolar
- effective amount of Calcein that needs to be present ([2]; pS1159 peptide binding): 60 to 300 nM
Compound: O=C(O)CN(CC(=O)O)Cc1cc2c(cc1O)Oc1cc(O)c(CN(CC(=O)O)CC(=O)O)cc1C21OC(=O)c2ccccc21 [Calcein, calcein]
